Literature values in patent US7666887B2, “Stable, neutral pH, VOC-free biocidal compositions of 1,2-benzisothiazolin-3-one” (ISP Investments, Inc., priority 2004, dated 2010).

Columns and labels:
[1] = in some individuals

O=c1[nH]sc2ccccc12 [BIT, 1,2-benzisothiazolin-3-one]
aqueous solubility: low
sensitization [1]: can cause sensitization
